In patent US11530244B2, “Cyclic polypeptides for PCSK9 inhibition” (priority 2018, dated 2022):
Starred links: 1 amine or outer side, 2 acyl side, 3 side chain; linkers in the order of their positions; H or OH if unused. Positions of bridges follow the written chain, without caps; N, C: chain ends. Non-standard residues stand in square brackets, D forms with d. Residues, ends and D or L forms follow the SMILES beside them. Pro(3R,4S-CMe2) = CC1(C)[C@@H]2[C@@H](C(=O)O)NC[C@@H]21; X25 = O=C([C@H](Cc1cccc(OCC=[*:3])c1)N[*:1])[*:2]; Pro(4R-Bn) = O=C(O)[C@@H]1C[C@@H](Cc2ccccc2)CN1; Trp(5-F) = N[C@@H](Cc1c[nH]c2ccc(F)cc12)C(=O)O; NMePhe(4-F) = CN[C@@H](Cc1ccc(F)cc1)C(=O)O; X3 = O=C(CCSCc1cc(F)cc(CSCCN[*:1])c1)[*:2]; X42 = CN([C@@H](CCC=[*:3])C(=O)[*:2])[*:1]; Bip = N[C@@H](Cc1ccc(-c2ccccc2)cc1)C(=O)O; mXylylene = c1cc(C[*:1])cc(C[*:2])c1; NMeY = CN[C@@H](Cc1ccc(O)cc1)C(=O)O; X35 = COc1cc(C[*:1])cc(C[*:2])c1; NMeD = CN[C@@H](CC(=O)O)C(=O)O; NMeL = CN[C@@H](CC(C)C)C(=O)O; NMeV = CN[C@H](C(=O)O)C(C)C; αMeP = C[C@@]1(C(=O)O)CCCN1; Pip = O=C(O)[C@@H]1CCCCN1; Ac3c = NC1(C(=O)O)CC1; Aib = CC(C)(N)C(=O)O; Mpa = O=C(O)CCS; Sar = CNCC(=O)O

Target: human PCSK9 / human LDLR EGFa domain interaction (Homo sapiens (Human), UniProt Q8NBP7)
Sequence (Q8NBP7 153-692): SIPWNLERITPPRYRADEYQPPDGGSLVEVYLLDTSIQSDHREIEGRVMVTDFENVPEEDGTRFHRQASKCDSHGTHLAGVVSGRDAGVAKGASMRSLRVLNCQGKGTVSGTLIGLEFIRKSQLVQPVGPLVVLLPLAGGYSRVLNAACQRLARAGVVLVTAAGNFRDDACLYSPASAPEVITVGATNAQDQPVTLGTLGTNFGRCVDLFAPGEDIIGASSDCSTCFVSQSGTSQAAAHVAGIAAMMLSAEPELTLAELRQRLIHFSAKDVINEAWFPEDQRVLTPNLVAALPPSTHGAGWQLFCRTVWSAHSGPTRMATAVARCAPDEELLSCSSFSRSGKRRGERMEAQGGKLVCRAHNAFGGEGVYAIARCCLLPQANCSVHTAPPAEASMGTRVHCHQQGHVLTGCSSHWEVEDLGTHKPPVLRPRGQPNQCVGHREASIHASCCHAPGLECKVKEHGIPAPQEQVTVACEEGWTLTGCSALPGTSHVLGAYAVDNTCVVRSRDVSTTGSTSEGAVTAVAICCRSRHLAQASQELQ
Sequence (Q8NBP7 31-152 partner): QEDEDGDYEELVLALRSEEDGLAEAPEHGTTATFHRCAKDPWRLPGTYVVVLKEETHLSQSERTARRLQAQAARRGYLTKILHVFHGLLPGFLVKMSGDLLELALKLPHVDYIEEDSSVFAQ
Test: TR-FRET assay of inhibition of the PCSK9-LDLR protein-protein interaction
Type: binding
Details: TR-FRET, 20 nM human PCSK9, 20 nM human LDLR EGFa domain, 2 hours room temperature; read-out: IC50
Protocol: A time-resolved fluorescence resonance energy (TR-FRET) assay was used to measure inhibition of the PCSK9-LDLR protein-protein interaction. Briefly, 20 nM avitag-biotinylated human PCSK9 was incubated with 20 nM his-tagged human LDLR EGFa domain in the presence of 5 nM LANCE Ulight Streptavidin (Perkin Elmer) and 5 nM europium-Anti-6×His (Perkin Elmer) for 2 hours covered at room temperature in buffer containing 50 mM HEPES, 150 mM NaCl, 5 mM CaCl2), 0.01% BSA and 0.01% Surfactant P20. Compounds were tested in dose-response and concentrations giving half-maximal inhibition calculated using a 4-parameter fit equation.

SMILES | IC50 [µM]
C[C@@H](O)[C@@H]1NC(=O)[C@@H]2CCCN2C(=O)[C@H](Cc2c[nH]c3ccc(F)cc23)NC(=O)[C@H](Cc2c[nH]c3ccc(F)cc23)NC(=O)CNC(=O)[C@H](CCCCN)NC(=O)CCSCc2cccc(c2)CSC[C@@H](C(N)=O)NC(=O)[C@]2(C)CCCN2C(=O)[C@H](Cc2ccc(O)cc2)NC1=O [Compound 014] ([Mpa]KG[Trp(5-F)][Trp(5-F)]PTY[αMeP]C-NH2; linker 1-10 via mXylylene) | 0.1 to 1
CC1(C)[C@@H]2[C@H]3C(=O)N[C@H](C(N)=O)CSCc4cccc(c4)CSCCC(=O)N[C@@H](CCCCN)C(=O)NCC(=O)N[C@@H](Cc4c[nH]c5ccc(F)cc45)C(=O)N[C@@H](Cc4c[nH]c5ccc(F)cc45)C(=O)N[C@@H](CC(=O)O)C(=O)N[C@@H](Cc4c[nH]cn4)C(=O)N[C@@H](Cc4ccc(O)cc4)C(=O)N3C[C@@H]21 [Compound 201] ([Mpa]KG[Trp(5-F)][Trp(5-F)]DHY[Pro(3R,4S-CMe2)]C-NH2; linker 1-10 via mXylylene) | 1 to 12.1
COc1cc2cc(c1)CSC[C@@H](C(N)=O)NC(=O)[C@@H]1CCCN1C(=O)[C@H](Cc1ccc(O)cc1)NC(=O)[C@H](Cc1c[nH]cn1)NC(=O)[C@H](CC(=O)O)NC(=O)[C@H](Cc1c[nH]c3ccc(F)cc13)NC(=O)[C@H](Cc1c[nH]c3ccc(F)cc13)NC(=O)CNC(=O)[C@H](CCCCN)NC(=O)CCSC2 [Compound 197] ([Mpa]KG[Trp(5-F)][Trp(5-F)]DHYPC-NH2; linker 1-10 via X35) | 21 to 50
NCCCC[C@@H]1NC(=O)CCSCc2cccc(c2)CSC[C@@H](C(N)=O)NC(=O)[C@@H]2CCCCN2C(=O)[C@H](Cc2ccc(O)cc2)NC(=O)[C@H](Cc2cnc[nH]2)NC(=O)[C@H](CC(=O)O)NC(=O)[C@H](Cc2c[nH]c3ccc(F)cc23)NC(=O)[C@H](Cc2c[nH]c3ccc(F)cc23)NC(=O)CNC1=O [Compound 208] ([Mpa]KG[Trp(5-F)][Trp(5-F)]DHY[Pip]C-NH2; linker 1-10 via mXylylene) | 21 to 50
COc1ccc(C[C@@H]2NC(=O)[C@@H](CC(C)C)NC(=O)[C@H](CC(C)C)NC(=O)CCSCc3cccc(c3)CSC[C@@H](C(N)=O)NC(=O)[C@]3(C)CCCN3C(=O)[C@H](Cc3ccc(OC)cc3)NC(=O)[C@H]([C@@H](C)OC)NC(=O)[C@H](CC(C)C)N(C)C(=O)[C@H](Cc3ccc(OC)cc3)NC2=O)cc1 [Compound 037] ([Mpa]L[dL]Y(Me)Y(Me)[NMeL]T(Me)Y(Me)[αMeP]C-NH2; linker 1-10 via mXylylene) | 0.1 to 1
CC1(C)NC(=O)[C@H](Cc2cnc[nH]2)NC(=O)[C@H](CC(=O)O)NC(=O)[C@H](Cc2c[nH]c3ccc(F)cc23)NC(=O)[C@H](Cc2c[nH]c3ccc(F)cc23)NC(=O)CNC(=O)[C@H](CCCCN)NC(=O)CCSCc2cccc(c2)CSC[C@@H](C(N)=O)NC(=O)[C@@H]2CCCN2C1=O [Compound 318] ([Mpa]KG[Trp(5-F)][Trp(5-F)]DH[Aib]PC-NH2; linker 1-10 via mXylylene) | 0.0001 to 0.1
NCCCC[C@@H]1NC(=O)CCSCc2cccc(c2)CSC[C@@H](C(N)=O)NC(=O)[C@@H]2CCCN2C(=O)[C@H](Cc2ccc(-c3ccccc3)cc2)NC(=O)[C@H](Cc2c[nH]cn2)NC(=O)[C@H](CC(=O)O)NC(=O)[C@H](Cc2c[nH]c3ccc(F)cc23)NC(=O)[C@H](Cc2c[nH]c3ccc(F)cc23)NC(=O)CNC1=O [Compound 243] ([Mpa]KG[Trp(5-F)][Trp(5-F)]DH[Bip]PC-NH2; linker 1-10 via mXylylene) | 1 to 12.1
CC1(C)NC(=O)[C@H](Cc2c[nH]c3ccc(F)cc23)NC(=O)CNC(=O)[C@H](CCCCN)NC(=O)CCSCc2cccc(c2)CSC[C@@H](C(N)=O)NC(=O)[C@@H]2CCCN2C(=O)[C@H](Cc2ccc(O)cc2)NC(=O)[C@H](Cc2cnc[nH]2)NC(=O)[C@H](CC(=O)O)NC1=O [Compound 317] ([Mpa]KG[Trp(5-F)][Aib]DHYPC-NH2; linker 1-10 via mXylylene) | 21 to 50
CC(=O)N[C@@H](Cc1cnc[nH]1)C(=O)N(C)[C@@H](Cc1ccc(F)cc1)C(=O)N[C@H]1CSCc2cccc(c2)CSC[C@@H](C(N)=O)NC(=O)[C@@H]2CCCN2C(=O)[C@H](Cc2ccc(O)cc2)NC(=O)[C@H](Cc2cnc[nH]2)NC(=O)[C@H](CC(=O)O)NC(=O)[C@H](Cc2c[nH]c3ccc(F)cc23)NC(=O)[C@H](Cc2c[nH]c3ccc(F)cc23)NC(=O)CNC(=O)[C@H](CCCCN)NC1=O [Compound 146] (Ac-H[NMePhe(4-F)]CKG[Trp(5-F)][Trp(5-F)]DHYPC-NH2; linker 3-12 via mXylylene) | 0.0001 to 0.1
NCCCC[C@@H]1NC(=O)CCSCc2cccc(c2)CSC[C@@H](C(N)=O)NC(=O)C2(CC2)NC(=O)[C@H](Cc2ccc(O)cc2)NC(=O)[C@H](Cc2c[nH]cn2)NC(=O)[C@H](CC(=O)O)NC(=O)[C@H](Cc2c[nH]c3ccc(F)cc23)NC(=O)[C@H](Cc2c[nH]c3ccc(F)cc23)NC(=O)CNC1=O [Compound 195] ([Mpa]KG[Trp(5-F)][Trp(5-F)]DHY[Ac3c]C-NH2; linker 1-10 via mXylylene) | 21 to 50
C[C@@H]1NC(=O)[C@H](CCCCN)NC(=O)CCSCc2cccc(c2)CSC[C@@H](C(N)=O)NC(=O)[C@@H]2CCCN2C(=O)[C@H](Cc2ccc(O)cc2)NC(=O)[C@H](Cc2cnc[nH]2)NC(=O)[C@H](CC(=O)O)NC(=O)[C@H](Cc2c[nH]c3ccc(F)cc23)NC(=O)[C@H](Cc2c[nH]c3ccc(F)cc23)NC1=O [Compound 156] ([Mpa]KA[Trp(5-F)][Trp(5-F)]DHYPC-NH2; linker 1-10 via mXylylene) | 1 to 12.1
CN1CC(=O)N[C@H](C(N)=O)CSCc2cccc(c2)CSCCC(=O)N[C@@H](CCCCN)C(=O)NCC(=O)N[C@@H](Cc2c[nH]c3ccc(F)cc23)C(=O)N[C@@H](Cc2c[nH]c3ccc(F)cc23)C(=O)N[C@@H](CC(=O)O)C(=O)N[C@@H](Cc2cnc[nH]2)C(=O)N[C@@H](Cc2ccc(O)cc2)C1=O [Compound 194] ([Mpa]KG[Trp(5-F)][Trp(5-F)]DHY[Sar]C-NH2; linker 1-10 via mXylylene) | 21 to 50
NCCCC[C@@H]1NC(=O)CCSCc2cccc(c2)CSC[C@@H](C(N)=O)NC(=O)[C@@H]2C[C@@H](Cc3ccccc3)CN2C(=O)[C@H](Cc2ccc(O)cc2)NC(=O)[C@H](Cc2c[nH]cn2)NC(=O)[C@H](CC(=O)O)NC(=O)[C@H](Cc2c[nH]c3ccc(F)cc23)NC(=O)[C@H](Cc2c[nH]c3ccc(F)cc23)NC(=O)CNC1=O [Compound 294] ([Mpa]KG[Trp(5-F)][Trp(5-F)]DHY[Pro(4R-Bn)]C-NH2; linker 1-10 via mXylylene) | 0.1 to 1
CN1CC(=O)N[C@@H](Cc2c[nH]c3ccccc23)C(=O)N[C@@H](Cc2c[nH]c3ccccc23)C(=O)N(C)[C@@H](CC(=O)O)C(=O)N[C@@H](Cc2c[nH]cn2)C(=O)N[C@@H](Cc2ccc(O)cc2)C(=O)N2CCC[C@H]2C(=O)N[C@H](C(N)=O)CSCc2cccc(c2)CSCCC(=O)N[C@@H](CCCCN)C1=O [Compound 222] ([Mpa]K[Sar]WW[NMeD]HYPC-NH2; linker 1-10 via mXylylene) | 21 to 50
CC(C)[C@H]1C(=O)N[C@H](C(N)=O)CSCc2cccc(c2)CSCCC(=O)N[C@@H](CCCCN)C(=O)NCC(=O)N[C@@H](Cc2c[nH]c3ccc(F)cc23)C(=O)N[C@@H](Cc2c[nH]c3ccc(F)cc23)C(=O)N[C@@H](CC(=O)O)C(=O)N[C@@H](Cc2cnc[nH]2)C(=O)N[C@@H](Cc2ccc(O)cc2)C(=O)N1C [Compound 220] ([Mpa]KG[Trp(5-F)][Trp(5-F)]DHY[NMeV]C-NH2; linker 1-10 via mXylylene) | 21 to 50
CN1CC(=O)N[C@@H](Cc2c[nH]c3ccccc23)C(=O)N[C@@H](Cc2c[nH]c3ccccc23)C(=O)N(C)[C@@H](CC(=O)O)C(=O)N[C@@H](Cc2cnc[nH]2)C(=O)N(C)[C@@H](Cc2ccc(O)cc2)C(=O)N2CCC[C@H]2C(=O)N[C@H](C(N)=O)CSCc2cccc(c2)CSCCC(=O)N[C@@H](CCCCN)C1=O [Compound 221] ([Mpa]K[Sar]WW[NMeD]H[NMeY]PC-NH2; linker 1-10 via mXylylene) | 21 to 50
COc1ccc(C[C@@H]2NC(=O)[C@H]([C@@H](C)OC)NC(=O)[C@@H]3CC/C=C\COc4cccc(c4)C[C@H](NC(=O)[C@@H](C)NC(=O)[C@H](C)NC(=O)CCSCc4cc(F)cc(c4)CSCCNC(=O)[C@]4(C)CCCN4C2=O)C(=O)N[C@@H](Cc2c[nH]c4ccc(F)cc24)C(=O)N3C)cc1 [Compound 505] (cyclo(A[dA][X25][Trp(5-F)][X42]T(Me)Y(Me)[αMeP][X3]); staple (Z) 3-5) | 0.1 to 1
C[C@H]1NC(=O)[C@H](CC(=O)O)NC(=O)[C@H](Cc2c[nH]c3ccc(F)cc23)NC(=O)[C@H](Cc2c[nH]c3ccc(F)cc23)NC(=O)CNC(=O)[C@H](CCCCN)NC(=O)CCSCc2cccc(c2)CSC[C@@H](C(N)=O)NC(=O)[C@]2(C)CCCN2C(=O)[C@H](Cc2ccc(O)cc2)NC1=O [Compound 033] ([Mpa]KG[Trp(5-F)][Trp(5-F)]D[dA]Y[αMeP]C-NH2; linker 1-10 via mXylylene) | 1 to 12.1
CC(=O)N[C@H]1CSCc2cccc(c2)CSC[C@@H](C(N)=O)NC(=O)[C@@H]2CCCN2C(=O)[C@H](Cc2ccc(O)cc2)NC(=O)[C@H](Cc2c[nH]cn2)NC(=O)[C@H](CC(=O)O)NC(=O)[C@H](Cc2c[nH]c3ccc(F)cc23)NC(=O)[C@H](Cc2c[nH]c3ccccc23)NC(=O)CNC(=O)[C@H](CCCCN)NC1=O [Compound 176] (Ac-CKGW[Trp(5-F)]DHYPC-NH2; linker 1-10 via mXylylene) | 21 to 50
C[C@@H]1NC(=O)CCSCc2cccc(c2)CSC[C@@H](C(N)=O)NC(=O)[C@]2(C)CCCN2C(=O)[C@H](Cc2ccc(O)cc2)NC(=O)[C@H](Cc2cnc[nH]2)NC(=O)[C@H](CC(=O)O)NC(=O)[C@H](Cc2c[nH]c3ccc(F)cc23)NC(=O)[C@H](Cc2c[nH]c3ccc(F)cc23)NC(=O)CNC1=O [Compound 308] ([Mpa]AG[Trp(5-F)][Trp(5-F)]DHY[αMeP]C-NH2; linker 1-10 via mXylylene) | 1 to 12.1
